Measured values taken from patent publication US20040067998A1, “Antifungal and/or antiparasitic pharmaceutical composition and novel indole derivatives as active principle of such a composition” (priority 2003, published 2004).
Values after ≈ are worked out from the molar mass of the structure shown. Values joined by “and” are separate entries in the source; they are usually repeats but may differ in a detail not shown here. Equal values may be shown once. “Also recorded” adds a separate entry of the source. Read-outs that look alike come from different tables or passages of the source.

Legend:
Type in all cases: cell-based
[1] = system: Candida albicans (strain n° CA980001); assay: Antifungal activity on a clinical strain of Candida albicans (MTT colorimetric microplate test); settings: for CMI or CI80 Candida albicans (CA980001) / MIC: strain CA980001; for activity of inhibition of Candida albicans (in words): summary of Tables 27 to 40; for MIC: read-out: CMI or CI80 Candida albicans (CA980001)
[2] = system: Aspergillus fumigatus (strain n°AF 980003); assay: Antifungal activity on a clinical strain of Aspergillus fumigatus (Alamar Blue microplate test); settings: for CMI or CI80 Aspergillus fumigatus (AF980003) / MIC: strain AF980003; for activity against Aspergillus fumigatus (in words): summary of Tables 27 to 40; for MIC: read-out: CMI or CI80 Aspergillus fumigatus (AF980003)
[3] = system: promastigote stage of Leishmania mexicana; assay: Antiparasitic activity on the promastigote form of Leishmania (MTT); settings: for IC50: read-out: CI50 Leishmania mexicana Promastigotes
[4] = system: Candida albicans (4 strains); assay: Antifungal activity in vitro on clinical strains of Candida: albicans (4 strains)
[5] = system: Candida krusei (4 strains); assay: Antifungal activity in vitro on clinical strains of Candida: krusei (4 strains)
[6] = system: Candida lusitaniae (1 strain); assay: Antifungal activity in vitro on clinical strains of Candida: lusitaniae (1 strain)
[7] = system: Candida parapsilosis (2 strains); assay: Antifungal activity in vitro on clinical strains of Candida: parapsilosis (2 strains)
[8] = promastigotes, 36 h at 26° C., MTT

Structure (SMILES) | CMI or CI80 Candida albicans (CA980001) [1] | CMI or CI80 Aspergillus fumigatus (AF980003) [2] | activity against Aspergillus fumigatus (in words) [2] | CI50 Leishmania mexicana Promastigotes ([3]; promastigotes) | IC50 ([3]; promastigotes) | MIC [2] | CI50 Leishmania mexicana Promastigotes [3] | IC50 [3] | activity of inhibition of Candida albicans (in words) [1] | MIC [1] | also measured
CCn1c(C(c2ccc(Cl)cc2)n2ccnc2)c(C)c2cc(Br)ccc21 (stereo not drawn) [compound 33] | 59 ± 1 μM and 25 ± 0.5 μg/mL | 56 ± 3 μM and 24 ± 1 μg/mL | strong activity | 2.87 ± 2 µg/mL (≈ 6.69 µM) | 6.7 ± 2.1 µM |  |  |  |  |  | activity against Leishmania mexicana (in words) [3]: strong activity
CCn1c(C(c2ccc(Cl)cc2Cl)n2ccnc2)c(C)c2cc(Br)ccc21 (stereo not drawn) [compound 34] | 48 ± 0.5 μM and 22 ± 0.5 μg/mL |  |  |  |  | >100 µM | 1.99 ± 0.04 µg/mL (≈ 4.3 µM) | 4.28 ± 0.1 µM |  |  | activity against Leishmania mexicana (in words) [3]: strong activity
CCn1c(C)c(C(c2ccc(F)cc2)n2ccnc2)c2ccccc21 (stereo not drawn) [compound 43] | 6 ± 1 μM and 2.0 ± 1 μg/mL | 53 ± 3 μM and 17 ± 1 μg/mL |  | 1.88 ± 0.1 µg/mL (≈ 5.64 µM) | 5.9 ± 0.14 µM |  |  |  | significant activity |  | 
CCN1CCc2cccc(C(c3ccc(F)cc3)n3ccnc3)c21 (stereo not drawn) [compound 50] |  |  | most active |  |  |  |  |  | most active |  | CMI or CI80 Candida albicans (CA980001) ([1]; 24 h at 37° C., MTT): 0.67 ± 0.01 μM and 0.22 ± 0.01 μg/ml; CMI or CI80 Aspergillus fumigatus (AF980003) ([2]; Alamar Blue): 5.4 ± 0.2 μM and 1.7 ± 0.1 μg/ml; activity against Leishmania mexicana (in words) [3]: most active; CI50 Leishmania mexicana Promastigotes [3, 8]: 0.24 ± 0.017 µg/mL (≈ 0.747 µM); IC50 [3, 8]: 0.74 ± 0.017 µM
CCn1ccc2cccc(C(c3ccc(F)cc3)n3ccnc3)c21 (stereo not drawn) [compound 57] | 0.67 ± 0.02 μM and 0.21 ± 0.01 μg/mL | 20 ± 5 μM and 6 ± 2 μg/mL | most active | 0.80 ± 1.3 µg/mL (≈ 2.5 µM) | 2.49 ± 1.3 µM |  |  |  | most active |  | 
CCn1ccc2cc(Br)cc(C(c3ccc(F)cc3)n3ccnc3)c21 (stereo not drawn) [compound 58] | 0.69 ± 0.01 μM and 0.27 ± 0.01 μg/mL | 59 ± 4 μM and 23 ± 2 μg/mL | strong activity | 2.4 ± 0.12 µg/mL (≈ 6.03 µM) | 6.2 ± 0.35 µM |  |  |  | most active |  | 
Clc1ccc(Cn2cc(CCn3ccnc3)c3ccccc32)cc1 [compound 59] |  |  |  |  |  | >100 µM | 15.6 µg/mL (≈ 46.5 µM) | 87 µM |  | >100 µM | 
Clc1ccc(Cn2cc(CCCn3ccnc3)c3ccccc32)cc1 [compound 60] |  |  |  |  |  | >100 µM | 26.1 µg/mL (≈ 74.6 µM) | 74.7 µM |  | >100 µM | 
Clc1ccccc1Cn1cc(C2(Cn3ccnc3)CCCC2)c2ccccc21 [compound 62] |  |  |  |  |  | >100 µM | 28.38 µg/mL (≈ 72.8 µM) | 72.8 µM |  | >100 µM | 
Cc1c(C(C)n2ccnc2)c2ccccc2n1Cc1ccc(F)cc1 (stereo not drawn) [compound 72] | 67 ± 3 μM and 22 ± 1 μg/mL | 69 ± 1 μM and 23 ± 1 μg/mL |  |  |  |  | 0.7 ± 0.3 µg/mL (≈ 2.1 µM) | 2 ± 1 µM |  |  | 
OC(Cn1ccnc1)(Cn1ccc2ccccc21)c1ccc(Br)cc1 (stereo not drawn) [compound 73] | 0.02 µg/mL |  |  | 2.7 ± 0.08 µg/mL (≈ 6.81 µM) | 6.65 ± 0.22 µM | >100 µM |  |  | most active | 0.06 µM (≈ 0.0238 µg/mL) | activity against strains of Candida albicans (in words) ([4]; clinical strains): active; also recorded: very active; CI80 on clinical strains of Candida ([4]; strain CA980001 (Candida albicans)): 0.06 ± 0.002 µM; CI80 on clinical strains of Candida ([4]; strain CA980002 (Candida albicans)): 0.63 ± 0.016 µM; CI80 on clinical strains of Candida ([4]; strain CA980003 (Candida albicans)): 0.55 ± 0.0963 µM; CI80 on clinical strains of Candida ([4]; strain CA980005 (Candida albicans)): 0.53 ± 0.022 µM; activity against Candida krusei (in words) ([5]; clinical strains, b748: one strain): active; also recorded: very active; CI80 on clinical strains of Candida ([5]; strain CK980001 (Candida krusei)): 0.65 ± 0.01 µM; CI80 on clinical strains of Candida ([5]; strain CK980002 (Candida krusei)): 12.81 ± 2.22 µM; CI80 on clinical strains of Candida ([5]; strain CK980003 (Candida krusei)): 92.27 ± 3.90 µM; CI80 on clinical strains of Candida ([5]; strain CK980004 (Candida krusei)): >100 µM; activity against Candida lusitaniae (in words) ([6]; clinical strain): very active; CI80 on clinical strains of Candida ([6]; strain CL980001 (Candida lusitaniae)): 0.63 ± 0.01 µM; activity against Candida parapsilosis (in words) ([7]; clinical strains): very active; CI80 on clinical strains of Candida ([7]; strain CP980001 (Candida parapsilosis)): 0.67 ± 0.0 µM; CI80 on clinical strains of Candida ([7]; strain CP980002 (Candida parapsilosis)): 4.65 ± 0.11 µM
OC(Cn1ccnc1)(Cn1ccc2ccccc21)c1ccc(F)cc1F (stereo not drawn) [compound 77] | 0.00035 µg/mL | 11 ± 7 μM and 4 ± 2 μg/mL |  | 1.59 µg/mL (≈ 4.5 µM) | 4.5 µM |  |  |  | most active | 0.0011 µM (≈ 0.000389 µg/mL) | 
Clc1ccc(C(Cn2ccc3ccccc32)n2ccnc2)cc1 (stereo not drawn) [compound 85] |  | 88 ± 5 μM and 28 ± 2 μg/mL |  |  |  |  |  | > 100 µM |  | >100 µM | 
